Several values for one entry are separate records, joined by “and”; a condition that tells them apart may be missing. Identical values can stand only once. Like-named read-outs stand apart in the source and are kept apart here.

The test system of data set [1] is glioma tumors. The following applies: cited from earlier work.
Data set [2] has as its target T1, CB2 receptor (Homo sapiens, UniProt P34972). The data set is described as follows: CB2 assay: displacement of [3H]CP-55,940 from cloned human CB2 receptor preparation (transfected HEK 293 cells). Set-up: expressed in transfected cells. The class given is binding. To be noted: for Ratio CB1/CB2: Table 1, ratio of Ki values; for Ki: cloned human CB2.
For data set [3], the target named is T2, CB1 receptor (Rattus norvegicus, UniProt P20272).
T2 construct: from tissue; host or cells: rat whole brain, P2 membranes
T2 sequence (P20272 whole entry): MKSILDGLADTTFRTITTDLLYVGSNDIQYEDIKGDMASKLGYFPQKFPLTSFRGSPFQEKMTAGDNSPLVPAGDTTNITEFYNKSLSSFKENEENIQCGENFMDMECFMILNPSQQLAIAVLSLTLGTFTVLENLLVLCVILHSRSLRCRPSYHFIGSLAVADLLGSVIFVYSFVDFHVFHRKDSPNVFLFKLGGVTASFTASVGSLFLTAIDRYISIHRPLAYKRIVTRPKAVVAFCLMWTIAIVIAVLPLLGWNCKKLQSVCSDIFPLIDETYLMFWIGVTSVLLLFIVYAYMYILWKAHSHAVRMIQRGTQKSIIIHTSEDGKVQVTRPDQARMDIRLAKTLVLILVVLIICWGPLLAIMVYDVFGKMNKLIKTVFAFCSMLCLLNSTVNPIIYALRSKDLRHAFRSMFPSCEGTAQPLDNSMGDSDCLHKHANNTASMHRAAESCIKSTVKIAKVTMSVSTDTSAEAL

For data set [4], the target named is T1, CB2 receptor. Further details: expressed in transfected cells. The following applies: previously reported by the applicants (literature refs), read-out: Ki at CB2 receptor, cited from earlier work.
Data set [5] relates to mouse model of multiple sclerosis. To be noted: cited from earlier work.
Data set [6] concerns the target T1, CB2 receptor. The data set is described as follows: [35S]GTPγS binding in human CB2 receptor-expressing CHO cell membranes. The class given is biochemical. Set-up: expressed in transfected cells. A general note: Binding of GTPγS marks nucleotide exchange on a G protein.
The target of data set [7] is T3, CB1 receptor (Homo sapiens, UniProt P21554). The following applies: Gareau et al.; cited from earlier work.
T3 sequence (P21554 whole entry): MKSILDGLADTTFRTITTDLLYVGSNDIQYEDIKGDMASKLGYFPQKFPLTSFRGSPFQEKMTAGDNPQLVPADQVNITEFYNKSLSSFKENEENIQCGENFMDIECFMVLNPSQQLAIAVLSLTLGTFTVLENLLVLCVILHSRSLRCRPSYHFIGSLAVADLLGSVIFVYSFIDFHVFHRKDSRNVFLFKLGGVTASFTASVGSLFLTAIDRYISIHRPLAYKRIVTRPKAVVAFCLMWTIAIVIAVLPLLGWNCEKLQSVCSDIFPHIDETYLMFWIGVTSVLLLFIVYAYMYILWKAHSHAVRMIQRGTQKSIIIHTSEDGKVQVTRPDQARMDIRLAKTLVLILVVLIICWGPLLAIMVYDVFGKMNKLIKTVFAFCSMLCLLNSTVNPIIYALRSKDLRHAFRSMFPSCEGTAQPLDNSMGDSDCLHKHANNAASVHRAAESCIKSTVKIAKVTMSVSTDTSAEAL
For data set [8], the target named is T2, CB1 receptor. Put plainly: CB1 assay: displacement of [3H]CP-55,940 from rat brain membrane preparation. The class given is binding.
Data set [9] addresses T1, CB2 receptor. To be noted: read-out: Ki at CB2; Gareau et al.; cited from earlier work.
For data set [10] the following is noted: blocked by CB2 antagonist SR-144528; cited from earlier work.
The conditions of data set [11]: blocked by CB2 antagonist SR-144528; cited from earlier work. This is another data set of the same source.
Data set [12] deals with T3, CB1 receptor. The following applies: read-out: Ki CB1 receptor; Hanus et al.; cited from earlier work.
Data set [13] concerns mouse behavioral tetrad. To be noted: cited from earlier work.
In data set [14] the test system is mouse vas deferens. The following applies: cited from earlier work.

T1 sequence (P34972 whole entry): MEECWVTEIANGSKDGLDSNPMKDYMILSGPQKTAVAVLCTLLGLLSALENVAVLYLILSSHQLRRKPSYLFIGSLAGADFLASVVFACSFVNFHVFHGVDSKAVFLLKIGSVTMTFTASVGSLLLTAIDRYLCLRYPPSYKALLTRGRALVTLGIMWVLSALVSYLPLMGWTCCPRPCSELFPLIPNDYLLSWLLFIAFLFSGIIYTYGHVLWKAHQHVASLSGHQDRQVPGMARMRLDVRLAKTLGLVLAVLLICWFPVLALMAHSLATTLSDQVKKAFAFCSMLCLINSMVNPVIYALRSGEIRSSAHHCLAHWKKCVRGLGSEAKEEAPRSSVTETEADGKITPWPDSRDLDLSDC

Regarding `CCCC(C)(C)c1ccc2c(c1)OC(C)(C)C1CC=C(C)CC21` (stereo not drawn) [Compound 3, 3-(1′,1′-Dimethylbutyl)-1-deoxy-Δ^8-THC, reference compound], the “in vivo growth of glioma tumors” value in [1] was “inhibits the in vivo growth of glioma tumors”. For the same compound, in [2], the “Ratio CB1/CB2” value turned out to be 199. For the same compound, the results for the Ki in data set [3] (previously reported by the applicants (literature refs); read-out: Ki at CB1 receptor; cited from earlier work) and in data set [4] (listed as JWH-133) were 677 ± 132 nM and 3.4 ± 1 nM, respectively. Further, in data set [5], the reduction of spasticity result is “effective in reducing spasticity”. The “Emax relative to CP-55,940” value in data set [6] came out at 111.5±13.6%. The “Emax (% CP-55940)” value in data set [6] (Table 4, mean ± SEM, per cent relative to 3 μM CP-55,940) is 111.5 ± 13.6 % CP-55940. Also, the “efficacy in the [35S]GTPγS assay relative to CP-55,940” value in [6] (in words) is given as “highly efficacious”. Besides, the EC50 in data set [6] (read-out: EC50 in the [35S]GTPγS assay) amounted to 4 ± 1 nM.
On to `CCCCCCC(C)(C)c1cc(OC)c2c(c1)OC(C)(C)[C@@H]1CC=C(C)C[C@@H]21` [Compound 4, 3-(1′,1′-Dimethylheptyl)-1-methoxy-Δ^8-THC, reference compound], for which the Ki in [2] (Ki at CB2 receptor) was 57 nM; in data set [3] (read-out: Ki at CB1 receptor; previously reported by the applicants (literature refs); cited from earlier work), 924 ± 104 nM; in data set [4], 65 ± 8 nM; in data set [8] it was 713 nM; in data set [9], around 20 nM. In addition, in [2], the “Ratio CB1/CB2” value was 12 and 14. The “Ki at CB1” value in data set [7] is listed as “virtually no affinity”.
As to `CCCCCCC(C)(C)c1cc(OC)c([C@@H]2C=C(CO)[C@@H]3C[C@H]2C3(C)C)c(OC)c1` [HU-308], the peripheral analgesic activity entry in data set [10] was “shows peripheral analgesic activity”. For the same compound, the “effect on blood pressure” value in data set [11] was “reduces blood pressure”. For the same compound, the Ki in [12] was above 10 µM. Further, in data set [13], the “activity in the mouse behavioral tetrad” value is “inactive”.
The compound `CCCn1cc(C(=O)c2c(OC)ccc3ccccc23)c2ccccc21` [JWH-265, 1-Propyl-3-(2-methoxy-1-naphthoyl)indole] returned a melting point of 117 to 119 °C. The Ki in data set [2] (read-out: Ki at CB2 receptor) worked out at 80 ± 13 nM. Also, the Ki in [8] (Table 3, mean ± SEM, 3-(alkoxy-1-naphthoyl)indoles, the same values as Ki in nM, read-out: CB1 (receptor affinity)) was 3790 ± 323 nM.
Regarding `COc1ccc(C(=O)c2c(C)n(CCN3CCOCC3)c3ccccc23)cc1` [pravadoline], in data set [14], the “contractions of electrically stimulated mouse vas deferens” value is “inhibited contractions”.

One may read the EC50 as the concentration at which the effect is half-maximal. The term melting point denotes the temperature, or range, at which the solid turns liquid.

The values are drawn from patent US20050009903A1, “CB2-selective cannabinoid analogues” (priority 2003, published 2005).
